Patent publication US8883782B2, “Spiro-tetracyclic ring compounds as beta-secretase modulators and methods of use” (Amgen Inc., priority 2010, dated 2014)
Read-outs that look alike come from different tables or passages of the source.

What was measured:
[1] = target: Beta Secretase enzyme (BACE) (Homo sapiens, UniProt P56817); assay: In vitro enzymatic BACE FRET (fluorescence resonance energy transfer) assay; assay type: biochemical; conditions: average IC50, enzyme assay; read-out: BACE 1 FRET assay
Beta Secretase enzyme (BACE), sequence (P56817 46-501, species assumed): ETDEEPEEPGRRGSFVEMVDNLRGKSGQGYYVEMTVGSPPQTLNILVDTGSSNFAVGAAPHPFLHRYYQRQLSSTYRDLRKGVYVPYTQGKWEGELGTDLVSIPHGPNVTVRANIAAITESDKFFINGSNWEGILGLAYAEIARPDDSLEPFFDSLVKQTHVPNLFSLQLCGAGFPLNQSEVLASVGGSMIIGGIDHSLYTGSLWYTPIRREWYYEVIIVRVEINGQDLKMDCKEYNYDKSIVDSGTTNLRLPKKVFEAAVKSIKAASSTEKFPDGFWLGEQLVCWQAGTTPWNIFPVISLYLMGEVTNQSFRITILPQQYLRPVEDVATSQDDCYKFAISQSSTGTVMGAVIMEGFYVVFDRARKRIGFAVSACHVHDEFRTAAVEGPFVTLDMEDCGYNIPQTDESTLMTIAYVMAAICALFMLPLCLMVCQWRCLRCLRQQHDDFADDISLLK
Procedure, shortened: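 Cleavage of a 50 nM fluorophore/quencher peptide FRET substrate by BACE for 1 h in 0.05 M acetate pH 4.2, 10% DMSO, 100 uM genapol. Reaction stopped with Tris to neutral pH before fluorescence reading.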

[2] = test system: Aβ40 in conditioned medium of cells stably expressing Amyloid Precursor Protein (APP); assay: In vitro BACE cell-based assay (Aβ40 in conditioned medium, sandwich ELISA); conditions: Homo sapiens, read-out: HEK cell assay
Procedure, shortened: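 Step two: 10-point compound titration added, starting 100 μM or 10 μM, 0.1% DMSO. Step three: medium Aβ40 measured by ELISA, capture 3 h and detection 2 h at 4° C, TRF read.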

[3] = HEK293, average IC50, HEK cells

SMILES: NC1=N[C@@]2(CO1)c1cc(-c3cccnc3F)ccc1Oc1c(F)cc(-c3cccnn3)cc12 [Example 201, (4S)-4′-fluoro-7′-(2-fluoro-3-pyridinyl)-2′-(3-pyridazinyl)spiro[1,3-oxazole-4,9′-xanthen]-2-amine]
- IC50 [1]: 1.8 nM
- IC50 ([2]; HEK293, average IC50): 7.6 nM

SMILES: NC1=N[C@]2(CO1)c1cc(C3=CCOCC3)cc(F)c1Oc1ccc(-c3cccnc3)c(F)c12 [Example 1046, (4R)-7′-(3,6-dihydro-2H-pyran-4-yl)-1′,5′-difluoro-2′-(3-pyridinyl)spiro[1,3-oxazole-4,9′-xanthen]-2-amine]
- IC50 [1]: 21.2 nM
- IC50 ([2]; HEK293, average IC50): 209 nM

SMILES: NC1=N[C@@]2(CS1)c1cc(-c3cccnc3F)ccc1Oc1c2cc(C2=CCCOC2)nc1F [Example 1028, (S)-3-(5,6-dihydro-2H-pyran-3-yl)-1-fluoro-7-(2-fluoropyridin-3-yl)-5′H-spiro[chromeno[2,3-c]pyridine-5,4′-thiazol]-2′-amine]
- IC50 [1]: 0.2 nM
- IC50 ([2]; HEK293, average IC50): 3 nM

SMILES: NC1=N[C@@]2(CO1)c1cc(-c3cccnc3)ccc1Oc1c2cc(C2=CCOCC2)nc1F [Example 639, (5S)-3-(3,6-dihydro-2H-pyran-4-yl)-1-fluoro-7-(3-pyridinyl)spiro[chromeno[2,3-c]pyridine-5,4′-[1,3]oxazol]-2′-amine]
- IC50 [1]: 0.4 nM
- IC50 [2, 3]: 3 nM

SMILES: NC1=N[C@@]2(CS1)c1cc(-c3cccnc3F)ccc1Oc1cnc(N3CCC(F)(F)C3)cc12 (single isomer, unassigned) [Example 704]
- IC50 [1]: 0.3 nM
- IC50 [2, 3]: 12 nM

SMILES: COc1cncc(-c2ccc3c(c2)[C@@]2(COC(N)=N2)c2cc(C#CC4(C)COC4)cnc2O3)c1 [Example 461, (5S)-7-(5-methoxy-3-pyridinyl)-3-((3-methyl-3-oxetanyl)ethynyl)spiro[chromeno[2,3-b]pyridine-5,4′-[1,3]oxazol]-2′-amine]
- IC50 [1]: 1.8 nM
- IC50 [2, 3]: 6.3 nM

SMILES: COC(C)(C)CNc1cc2c(cn1)Oc1ccc(-c3cccnc3F)cc1[C@@]21COC(N)=N1 [Example 418, (5S)-7-(2-fluoro-3-pyridinyl)-N~3~-(2-methoxy-2-methylpropyl)spiro[chromeno[2,3-c]pyridine-5,4′-[1,3]oxazole]-2′,3-diamine]
- IC50 [1]: 3 nM
- IC50 [2, 3]: 14.1 nM

SMILES: CC1(COc2cc(F)c3c(c2)[C@]2(CSC(N)=N2)c2cc(-c4cccnc4F)ccc2O3)COC1 [Example 794, (4S)-4′-fluoro-7′-(2-fluoro-3-pyridinyl)-2′-((3-methyl-3-oxetanyl)methoxy)spiro[1,3-thiazole-4,9′-xanthen]-2-amine]
- IC50 [1]: 0.2 nM
- IC50 ([2]; HEK293, average IC50): 6 nM

SMILES: COc1cc(F)c2c(c1)[C@@]1(CSC(N)=N1)c1cc(-c3cnccn3)ccc1O2 [Example 222, (4R)-4′-fluoro-2′-methoxy-7′-(2-pyrazinyl)spiro[1,3-thiazole-4,9′-xanthen]-2-amine]
- IC50 [1]: 41.4 nM
- IC50 ([2]; HEK293, average IC50): 1080 nM

SMILES: NC1=N[C@]2(CO1)c1cc(N3CC[C@@H](F)C3)cc(F)c1Oc1ccc(-c3cccnc3F)c(F)c12 [Example 1053, (4R)-1′,5′-difluoro-2′-(2-fluoro-3-pyridinyl)-7′-((3R)-3-fluoro-1-pyrrolidinyl)spiro[1,3-oxazole-4,9′-xanthen]-2-amine]
- IC50 [1]: 10.3 nM
- IC50 ([2]; HEK293, average IC50): 79 nM

SMILES: COC(C)(C)CNc1cc2c(cn1)Oc1ccc(-c3cccnc3)cc1[C@@]21COC(N)=N1 [Example 409, (5S)-N~3~-(2-methoxy-2-methylpropyl)-7-(3-pyridinyl)spiro[chromeno[2,3-c]pyridine-5,4′-[1,3]oxazole]-2′,3-diamine]
- IC50 [1]: 6.6 nM
- IC50 [2, 3]: 17.8 nM

SMILES: C[C@H]1CN(c2cc3c(cn2)Oc2ccc(-c4cccnc4N4CCN(C)[C@@H](C)C4)cc2[C@@]32COC(N)=N2)CCN1C [Example 530, (5S)-3-((3S)-3,4-dimethyl-1-piperazinyl)-7-(2-((3S)-3,4-dimethyl-1-piperazinyl)-3-pyridinyl)spiro[chromeno[2,3-c]pyridine-5,4′-[1,3]oxazol]-2′-amine]
- IC50 [1]: 3370 nM
- IC50 [2, 3]: 195 nM
